Read-outs that look alike come from different tables or passages of the source.
How the values were obtained:
[1] = system: HCV genotype 1b (Con1) replicon in HUH-7 cells; experiment: HCV replicon luciferase reporter assay, genotype 1b; type: cell-based; details: Hepatitis C virus, Huh-7, 72 h, 3 days incubation
Outline: (§1)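 Replicon inhibition for both genotypes was measured as Renilla luciferase signal (EnduRen, 7.5 μM final, 2 h) after 3-day, 37° C exposure of replicon-bearing HUH-7 cells in 4% FCS DMEM, 0.5% DMSO. The 1b construct carries S1179I; the 1a H77 construct carries P1496L and S2204I. Twenty-point, 3-fold dilutions were fitted four-parametrically for EC50, and CC50 was taken from multiplexed Cell Titer-Blue.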

[2] = system: HCV genotype 1a (H77 strain) replicon in HUH-7 cells; experiment: HCV replicon luciferase reporter assay, genotype 1a; type: cell-based; details: Hepatitis C virus, Huh-7, 72 h, 3 days incubation
Outline: as §1

[3] = HCV genotype 1b replicon luciferase, read-out: LE_1b (EC50, range)
[4] = HCV genotype 1a replicon luciferase, read-out: LE_1a (EC50, range)
[5] = HCV genotype 1b replicon luciferase assay, range class, read-out: LE_1b (EC50, range)
[6] = HCV genotype 1a replicon luciferase assay, range class, read-out: LE_1a (EC50, range)
[7] = GETYPE1B, HCV genotype 1b replicon luciferase, read-out: LE_1b (EC50, range)
[8] = GETYPE1A, HCV genotype 1a replicon luciferase, read-out: LE_1a (EC50, range)

## CCn1nc(O[C@@H]2C[C@H]3C(=O)N[C@]4(C(=O)NS(=O)(=O)C5(C)CC5)C[C@H]4/C=C\CC[C@H](C)C[C@@H](C)[C@H](NC(=O)c4ccc(N(C)C)cc4)C(=O)N3C2)c2ccccc2c1=O [Compound 5060, (2R,6S,7R,9S,13aS,14aR,16aS,Z)-6-(4-(dimethylamino)benzamido)-2-((3-ethyl-4-oxo-3,4-dihydrophthalazin-1-yl)oxy)-7,9-dimethyl-N-((1-methylcyclopropyl)sulfonyl)-5,16-dioxo-1,2,3,5,6,7,8,9,10,11,13a,14,14a,15,16,16a-hexadecahydrocyclopropa[e]pyrrolo[1,2-a][1,4]diazacyclopentadecine-14a-carboxamide]
[1]; HCV genotype 1b replicon luciferase, read-out: LE_1b (EC50)
  EC50: 950 nM
[1]; [3]
  EC50: > 87.4 nM
[2]; HCV genotype 1a replicon luciferase, read-out: LE_1a (EC50)
  EC50: ≥ 1000 nM
[2]; [4]
  EC50: > 87.4 nM

## C[C@@H]1CC/C=C\[C@@H]2C[C@@]2(C(=O)NS(=O)(=O)C2CC2)NC(=O)[C@@H]2C[C@@H](Oc3ncc(OC(F)F)c4c(Cl)cccc34)CN2C(=O)[C@@H](NC(=O)CC(C)(C)C(F)(F)F)[C@H](C)C1 [Compound 4031]
[1]; [3]
  EC50: < 5.46 nM
[2]; [4]
  EC50: < 5.46 nM

## CCOc1nnc(O[C@@H]2C[C@H]3C(=O)N[C@]4(C(=O)NS(=O)(=O)C5CC5)C[C@H]4/C=C\CC[C@@H](C)C[C@@H](C)[C@H](NC(=O)OC(C)(C)C(F)(F)F)C(=O)N3C2)c2ccccc12 [Compound 5037, 1,1,1-trifluoro-2-methylpropan-2-yl((2R,6S,7R,9R,13aS,14aR,16aS,Z)-14a-((cyclopropylsulfonyl)carbamoyl)-2-((4-ethoxyphthalazin-1-yl)oxy)-7,9-dimethyl-5,16-dioxo-1,2,3,5,6,7,8,9,10,11,13a,14,14a,15,16,16a-hexadecahydrocyclopropa[e]pyrrolo[1,2-a][1,4]diazacyclopentadecin-6-yl)carbamate]
[1]; [3]
  EC50: < 5.46 nM
[2]; [4]
  EC50: < 5.46 nM

## C[C@H]1CC/C=C\[C@@H]2C[C@@]2(C(=O)NS(=O)(=O)C2(C)CC2)NC(=O)[C@@H]2C[C@@H](Oc3nc(OCC(F)F)cc4c(Cl)cccc34)CN2C(=O)[C@@H](NC(=O)OC(C)(C)C)[C@H](C)C1 [Compound 1073, tert-butyl ((2R,6S,7R,9S,13aS,14aR,16aS,Z)-2-((5-chloro-3-(2,2-difluoroethoxyl)isoquinolin-1-yl)oxy)-7,9-dimethyl-14a-(((1-methylcyclopropyl)sulfonyl)carbamoyl)-5,16-dioxo-1,2,3,5,6,7,8,9,10,11,13a,14,14a,15,16,16a-hexadecahydrocyclopropa[e]pyrrolo[1,2-a][1,4]diazacyclopentadecin-6-yl)carbamate]
[1]; [5]
  EC50: < 5.46 nM
[2]; [6]
  EC50: < 5.46 nM

## COc1ccc2c(O[C@@H]3C[C@H]4C(=O)N[C@]5(C(=O)NS(=O)(=O)C6(C)CC6)C[C@H]5/C=C\CC[C@@H](C)C[C@@H](C)[C@H](NC(=O)OC(C)(C)C(F)(F)F)C(=O)N4C3)ncc(OC)c2c1 [Compound 4081]
[1]; [7]
  EC50: < 5.46 nM
[2]; [8]
  EC50: < 5.46 nM

## COc1cc2cc(-c3ccc(OC(C)C)cc3)nc(O[C@@H]3C[C@H]4C(=O)N[C@]5(C(=O)NS(=O)(=O)C6CC6)C[C@H]5/C=C\CC[C@H](C)C[C@@H](C)[C@H](NC(=O)OC(C)(C)C)C(=O)N4C3)c2cc1F [Compound 3181, tert-butyl ((2R,6S,7R,9S,13aS,14aR,16aS,Z)-14a-((cyclopropylsulfonyl)carbamoyl)-2-((7-fluoro-3-(4-isopropoxyphenyl)-6-methoxyisoquinolin-1-yl)oxy)-7,9-dimethyl-5,16-dioxo-1,2,3,5,6,7,8,9,10,11,13a,14,14a,15,16,16a-hexadecahydrocyclopropa[e]pyrrolo[1,2-a][1,4]diazacyclopentadecin-6-yl)carbamate]
[1]; [5]
  EC50: < 5.46 nM
[2]; [6]
  EC50: 4.82 to 103 nM

## COc1ccc2c(O[C@@H]3C[C@H]4C(=O)N[C@]5(C(=O)NS(=O)(=O)C6CC6)C[C@H]5/C=C\CC[C@H](C)C[C@@H](C)[C@H](NC(=O)O[C@@H]5C[C@@H]6C[C@@H]6C5)C(=O)N4C3)nc(-c3ccccc3)cc2c1 [Compound 5189, (1R,3r,5S)-bicyclo[3.1.0]hexan-3-yl((2R,6S,7R,9S,13aS,14aR,16aS,Z)-14a-((cyclopropylsulfonyl)carbamoyl)-2-((6-methoxy-3-phenylisoquinolin-1-yl)oxy)-7,9-dimethyl-5,16-dioxo-1,2,3,5,6,7,8,9,10,11,13a,14,14a,15,16,16a-hexadecahydrocyclopropa[e]pyrrolo[1,2-a][1,4]diazacyclopentadecin-6-yl)carbamate]
[1]; [3]
  EC50: < 5.46 nM
[2]; [4]
  EC50: < 5.46 nM

## CCOc1ccc2ncc(O[C@@H]3C[C@H]4C(=O)N[C@]5(C(=O)NS(=O)(=O)C6(C)CC6)C[C@H]5/C=C\CC[C@@H](C)C[C@@H](C)[C@H](NC(=O)OC(C)(C)C)C(=O)N4C3)cc2c1 [Compound 4311, tert-butyl ((2R,6S,7R,9R,13aS,14aR,16aS,Z)-2-((6-ethoxyquinolin-3-yl)oxy)-7,9-dimethyl-14a-(((1-methylcyclopropyl)sulfonyl)carbamoyl)-5,16-dioxo-1,2,3,5,6,7,8,9,10,11,13a,14,14a,15,16,16a-hexadecahydrocyclopropa[e]pyrrolo[1,2-a][1,4]diazacyclopentadecin-6-yl)carbamate]
[1]; [3]
  EC50: 1.01 to 5 nM
[2]; [4]
  EC50: 1.01 to 5 nM

## C[C@@H]1CC/C=C\[C@@H]2C[C@@]2(C(=O)NS(=O)(=O)C2CC2)NC(=O)[C@@H]2C[C@@H](Oc3ncc(OCC4CC4)c4ccc(F)cc34)CN2C(=O)[C@@H](NC(=O)OC(C)(C)C)[C@H](C)C1 [Compound 4166, tert-butyl (2R,6S,7R,9R,13aS,14aR,16aS,Z)-2-(4-(cyclopropylmethoxy)-7-fluoroisoquinolin-1-yloxy)-14a-(cyclopropylsulfonylcarbamoyl)-7,9-dimethyl-5,16-dioxo-1,2,3,5,6,7,8,9,10,11,13a,14,14a,15,16,16a-hexadecahydrocyclopropa[e]pyrrolo[1,2-a][1,4]diazacyclopentadecin-6-ylcarbamate]
[1]; [3]
  EC50: < 5.46 nM
[2]; [4]
  EC50: < 5.46 nM

## CC[C@@H]1C[C@H](C)CC/C=C\[C@@H]2C[C@@]2(C(=O)NS(=O)(=O)C2(C)CC2)NC(=O)[C@@H]2C[C@@H](Oc3cc(OC)nc4cc(OC)ccc34)CN2C(=O)[C@H]1NC(=O)OC(C)(C)C(F)(F)F [Compound 1209]
[1]; GETYPE1B, HCV genotype 1b replicon luciferase, read-out: LE_1b (EC50)
  EC50: 2 nM
[1]; [7]
  EC50: 1.01 to 5 nM
[2]; GETYPE1A, HCV genotype 1a replicon luciferase, read-out: LE_1a (EC50)
  EC50: 5.66 nM
[2]; [8]
  EC50: 5.01 to 35 nM

## CC[C@@H]1C[C@@H](C)CC/C=C\[C@@H]2C[C@@]2(C(=O)NS(=O)(=O)C2(C)CC2)NC(=O)[C@@H]2C[C@@H](Oc3ncc(OC)c4cc(OC)c(F)cc34)CN2C(=O)[C@H]1NC(=O)OC(C)(C)C(F)(F)F [Compound 4208]
[1]; [7]
  EC50: < 5.46 nM
[2]; [8]
  EC50: 4.82 to 103 nM

## CCOc1ccc2ncc(O[C@@H]3C[C@H]4C(=O)N[C@]5(C(=O)NS(=O)(=O)C6(C)CC6)C[C@H]5/C=C\CC[C@@H](C)C[C@@H](C)[C@H](NC(=O)OC(C)(C)C(F)(F)F)C(=O)N4C3)cc2c1 [Compound 4313]
[1]; [7]
  EC50: 0.1 to 0.5 nM
[2]; [8]
  EC50: 0.51 to 1 nM

## CC[C@@H]1C[C@H](C)CC/C=C\[C@@H]2C[C@@]2(C(=O)NS(=O)(=O)C2(C)CC2)NC(=O)[C@@H]2C[C@@H](Oc3ncc(OC)c4c(Cl)cccc34)CN2C(=O)[C@H]1NC(=O)OC(C)(C)C(F)(F)F [Compound 4253]
[1]; [7]
  EC50: 0.51 to 1 nM
[2]; [8]
  EC50: 1.01 to 5 nM

— patent US9499550B2 (BRISTOL-MYERS SQUIBB COMPANY, priority 2012, dated 2016)
